AC40 data for 73 molecules are collected here from PubChem BioAssay AID651717 (Broad Institute, 2012).

The experiment has as its system mESC Bmi1-luciferase reporter, firefly/renilla ratio, 24 h. In words: compounds raising Bmi1 reporter signal – mouse embryonic stem cells, luciferase, cherry-pick, esBAF inhibitor project, dose response (AID 651717).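 Note: luciferase knocked into Bmi1 locus with EF-1a renilla as cell number control; rising ratio signals esBAF inhibition which derepresses Bmi1.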
For the molecule `Cc1sc2c(c1C)CN(C(C)(C)C)CN2C(=O)c1ccccc1`, the AC40 was 1.37 µM. `CC(C)c1ccc(C(O)c2cnc(C(C)C)n2C)cc1` (stereo not drawn): the AC40 is 4.11 µM.

`CN(CC(=O)Nc1ccc(Cl)c(C(F)(F)F)c1)C(=O)CCCNC(=O)c1ccc(Cl)cc1`: the AC40 was 16.8 µM. Take `CCN(CC)C(=O)Oc1ccc2c(=O)c(-c3ccc(OC)cc3)coc2c1`: the AC40 is 3.7 µM. For `C=CCn1c(O)c(C=Nc2ccccc2)sc1=S`, the AC40 is 5.13 µM. Take `COc1ccc(C(=O)Nc2ccc(C3CC3(Cl)Cl)cc2)cc1` (stereo not drawn): the AC40 was 7.09 µM. For the molecule `COc1ccc(CNC(=O)c2ccc(-c3ccccc3)cc2)cc1`, the AC40 was 6.89 µM. For the molecule `O=C(Nc1cccc2ccccc12)c1cnccn1`, the AC40 was 6.43 µM.

Take `COc1ccc(OCc2cc(C(=O)NC(C)Cc3cnccn3)no2)c(Cl)c1` (stereo not drawn): the AC40 was 5.42 µM. As for `COc1ccc(C(=O)CNc2cccc(F)c2)cc1`, the figure is 16.4 µM; as for `COc1cccc(NC(=O)c2sc3nc4n(c(=O)c3c2C)CCC4)c1`, 2.73 µM. As for `COc1ccc(NC(=O)O/N=C/c2ccccc2)cc1`, the figure is 5.24 µM.

With `O=C(Nc1nc2c(s1)CCc1ccccc1-2)c1cccs1`, the AC40 was 0.9 µM.

For the molecule `COc1ccc(-c2csc(Nc3cccc(C)n3)n2)cc1OC`, the AC40 is 1.44 µM. As to `CCCCN(Cc1ccccc1)c1ncnc2nc[nH]c12`, the AC40 was 10.1 µM. As for `COc1ccc(Cc2c(-c3ccccc3)nc3ccc(Br)cn23)c(C)c1`, the figure is 8.9 µM; as for `O=C(CCN1C(=O)/C(=C/C=C/c2ccccc2)SC1=S)Nc1cccnc1`, 2.35 µM; as for `CCCOc1ccc(NC(=O)C2CC(=O)N/C(=N/N=C(C)/C=C/c3ccc(N(C)C)cc3)S2)cc1` (stereo not drawn), 6 µM. On to `O=C(Cc1ccccc1)Nc1nc(-c2cccs2)cs1`, for which the AC40 was 8.2 µM. `O=C(CC1CC2CCC1C2)NC1CCCCCCC1` (stereo not drawn): the AC40 is 9.68 µM. Turning to `S=c1[nH]nc(SCc2ccccc2)c2[nH]cnc12`, the AC40 is 5.52 µM. With `CN(C)c1ccc(CNc2nc3cc(-c4ccc(F)cc4)sc3c(=O)n2C)cc1`, the AC40 is 2.12 µM. In the case of `COC(=O)CN(C)C(=O)c1ccc2nc(Cc3cccc(Cl)c3)oc2c1`, the AC40 was 2.4 µM. As to `CN(C)c1ccc(-c2csc(C(O)c3ccc(F)cc3)n2)cc1` (stereo not drawn), the AC40 is 1.63 µM. For the molecule `CC(=O)Oc1ccc(-c2cc3ccccc3oc2=O)cc1`, the AC40 was 3.22 µM. The figure for `NC(=O)c1ccccc1-c1nc(-c2ccccc2)no1` is 4.23 µM. Regarding `Oc1cccc(Nc2nc(O)c(/C=C3\C=Nc4ccccc43)s2)c1`, the AC40 was 4.88 µM.

On to `Cc1nc(-c2ccccc2)sc1-c1nnc(C2CC2)o1`, for which the AC40 is 4.24 µM. For `Cc1ccc(C)c(N2CCN(C(=O)CCc3nc(-c4ccccc4Br)no3)CC2)c1`, the AC40 was 15.8 µM. For the molecule `C=CCN(C(=O)CC(NC(C)=O)c1ccccc1)c1nc(-c2ccc(S(C)(=O)=O)cc2)cs1` (stereo not drawn), the AC40 is 0.992 µM. As for `Clc1ccc(-c2nc(Cc3ccccc3)no2)cc1`, the AC40 was 1.85 µM. Consider `CN(C)c1cccc(-c2csc(N3CCC(C(N)=O)CC3)n2)c1`, for which the AC40 is 0.362 µM. `CC(=O)Nc1ccc(NC(=O)c2cccc(-c3cc4ccccc4oc3=O)c2)cc1`: the AC40 was 9.75 µM. `O=C(CCc1nnc(CCc2c[nH]c3ccccc23)o1)NC1CCC1`: the AC40 is 4.41 µM. In the case of `COc1ccc(CNc2nc3ccccc3s2)cc1OC`, the AC40 is 3.7 µM. Turning to `Cc1csc(NC(=O)Cc2ccc(F)cc2)n1`, the AC40 was 7.58 µM. As to `CCCC(=O)Nc1ccc2c(c1)C(=O)N(C)C[C@H](OC)[C@@H](C)CN(Cc1ccc(-c3ccccn3)cc1)[C@@H](C)CO2`, the AC40 was 8.13 µM. `CC1CCCN(C(=O)c2cc3c(=O)n4ccccc4nc3s2)C1` (stereo not drawn): the AC40 is 14.1 µM.

`Clc1ccc(-n2nnc(-c3ncc[nH]3)n2)cc1Cl`: the AC40 is 11.6 µM. With `Fc1ccc2nc(-c3ccccc3)ccc2c1`, the AC40 was 1.14 µM. For the molecule `CC(=O)Nc1ccc(-c2nnc(SCC(=O)Nc3ccc4c(c3)oc3ccccc34)n2C)cc1`, the AC40 is 6.97 µM.

As to `Cc1cc(N2CCOCC2)nc2ccc(NC(=O)CCC(=O)N3CCN(c4ccccc4F)CC3)cc12`, the AC40 was 4.59 µM. As for `CCN1C(=O)C(=CC=CN(C)c2ccccc2)SC1=S`, the figure is 0.466 µM; as for `CN(C)S(=O)(=O)c1ccc(C(=O)Nc2ccc3c(c2)CCC3)cc1`, 4.91 µM. With `COc1cc(/C=C/c2ccc(O)cc2)cc(OC)c1`, the AC40 was 2.31 µM. Regarding `c1ccc(-c2noc(CC3CCCCC3)n2)cc1`, the AC40 is 4.12 µM. With `C/C(CC(=O)Nc1ccc(OCc2ccccc2)cc1)=N\NC(=O)C(=O)Nc1ccc(C)c(Cl)c1`, the AC40 is 1.03 µM. As for `O=c1c2ccccc2nnn1CSc1nnnn1-c1ccccc1`, the figure is 9.13 µM; as for `Cc1cc2nc(N3CCN(C(=O)c4cccs4)CC3)sc2cc1C`, 1.98 µM; as for `CCC(C)NC(=O)c1cc(-c2ccccc2O)on1` (stereo not drawn), 11.1 µM. Turning to `Cc1ccc(NC(=O)CN2C(=O)N/C(=C/c3ccccc3OCc3cccc(C(=O)O)c3)C2=O)cc1`, the AC40 is 2.65 µM. In the case of `CC(C)CN1C(=O)c2ccc(C(=O)Nc3nccs3)cc2C1=O`, the AC40 is 1.98 µM. Take `Cc1ccc(NC(=O)CN(C)S(=O)(=O)c2cccs2)cc1C`: the AC40 was 2.98 µM.

Regarding `Cc1noc(C)c1-c1csc(N2CCC(C(N)=O)CC2)n1`, the AC40 was 0.444 µM.

Turning to `Cc1ccc(NC(=O)Cc2noc3ccccc23)cc1`, the AC40 is 2.47 µM.

For `Cc1ccc(-c2nnn(CC(=O)N(Cc3cccs3)C(C(=O)NC3CCCC3)c3ccncc3)n2)cc1` (stereo not drawn), the AC40 was 34.5 µM. As for `CO[C@@H]1CN(C)C(=O)c2cc(NC(=O)c3nc4ccccc4s3)ccc2OC[C@@H](C)N(Cc2cccnc2)C[C@H]1C`, the figure is 19.8 µM; as for `O=C(COC(=O)c1cccc(S(=O)(=O)N2CCOCC2)c1)Nc1nc(-c2ccccc2Cl)cs1`, 16.2 µM. As for `COc1cccc(NC(=O)c2ccnc(N3CCC(C(=O)NCc4ccccc4OC)CC3)c2)c1`, the figure is 8.36 µM; as for `COc1ccc(-c2cc(C(=O)Nc3ccc(C(N)=O)cc3)c3ccccc3n2)cc1`, 4.1 µM. Turning to `N/C(=N\OC(=O)Cc1cccs1)c1ccc(Cl)cc1`, the AC40 is 18.1 µM. Turning to `Cc1ccc2sc(NC(=O)C3CC3)nc2c1C`, the AC40 was 6.72 µM. Regarding `Cc1ccc(NC(=O)c2cccc3ccccc23)cc1`, the AC40 was 13.9 µM.

Regarding `COc1ccc(C2=NN(C(=O)c3ccccc3C(=O)O)C(c3ccccc3O)C2)cc1` (stereo not drawn), the AC40 is 6.57 µM. With `O=C1CCCc2cc3c(ccc4ccccc43)cc21`, the AC40 is 3.18 µM. With `C=CCN(C(=O)C1CC(=O)N(C2CCCC2)C1)c1nc(-c2ccc(S(C)(=O)=O)cc2)cs1` (stereo not drawn), the AC40 is 34.4 µM. As for `Cc1cc(-c2nnc(-c3cccc(C(F)(F)F)c3)o2)no1`, the figure is 6.58 µM.

With `C/C(=N\NC(=O)c1cccs1)c1ccc2ccccc2c1`, the AC40 was 12 µM. With `CCN(C(=O)c1cc2c(=O)n3ccccc3nc2s1)C1CCCCC1`, the AC40 was 14 µM.

With `COC(=O)c1ccc2nc(-c3cccc(Cl)c3)c(Cc3ccsc3)n2c1`, the AC40 was 7.98 µM. As for `CCS(=O)(=O)N1Cc2ccccc2CC1C(=O)Nc1cccc(OC)c1` (stereo not drawn), the figure is 8.28 µM; as for `COc1ccc(-c2nc(C#N)c(NC(C)C)o2)cc1`, 2.38 µM; as for `O=C(Nc1ccncc1)c1ccc2ncsc2c1`, 22.8 µM.
